Assay results as given in patent US5468773A, “Methods for inhibiting bone loss and cartilage degradation using wortmannin and its analogs” (Eli Lilly and Company, priority 1994, dated 1995).
Like-named read-outs stand apart in the source and are kept apart here. Ends that are not written are not given here.

Key:
[1] = tested on: ovariectomized rats; test: bone mineral density and content of left proximal tibiae in ovariectomized rats (pQCT); assay type: in vivo, rat; conditions: 5 weeks, mean ± SD, n=6; for Bone Content: Sham 14 ± 1.5, OVX 10.4 ± 1.2; for Total Bone Mineral Density: Sham 590 ± 26, OVX 494 ± 29
Description: As summarized in Table 4, IIIa was also examined in 6 month old, ovariectomized rats. The bone mineral density (mg/cm^3) and bone mineral content (mg) of the left proximal tibiae were quantitated by computer tomography with a Norland 960 pQCT after daily dosing per os for 5 weeks, similar to the methods of Griffin et al., "Dual-energy X-ray Absorptiometry of the Rat: Accuracy, Precision and Measurement of Bone Loss", J. Bone Miner. Res 8, pp. 795-800 (1993). There were five groups of rats with n=6 per group: Sham, OVX, 0.001, 0.01, and 0.1 mg of IIIa/kg per os daily. In vivo data are presented for a 2 mm slice of the left proximal tibia at 5 weeks post-ovariectomy (mean ±standard deviation).

[2] = tested on: osteoclastic bone resorption; test: serum calcium in a rat model of secondary hyperparathyroidism (calcium deficient diet), 6 hr infusion; assay type: in vivo, Sprague Dawley rats; conditions: T=0 control 12 mg/dl, P<0.05
Description: Compounds were also examined in a rat model of secondary hyperparathyroidism according to similars method as set out in Thomas et al., Bone and Mineral, 4, pp. 73-82 (1988) in an effort to examine the ability of these compounds to inhibit osteoclastic bone resorption in vivo. Serum calcium levels (mg/dl) were previously shown to be dependant on bone resorption in Sprague Dawley rats (400 g males) maintained on a calcium deficient diet for 2 weeks. Serum calcium levels were examined colorimetrically (Sigma, St. Louis) before (T=O) and after 6 hr infusion (T=6) of compounds at a rate of 0.08 ml/hr through cannula inserted into the jugular vein of anesthesized rates. At T=0, the serum calcium of a control rat was 12 mg/dl.

[3] = tested on: hen osteoclasts; test: inhibition of in vitro bone resorption activity of hen osteoclasts; assay type: cell-based; conditions: for percent of control bone resorption: mean ± SE, n=3-6
Procedure: (§1) Control resorption in Table 2b corresponded to 12-62 Howship's lacunae per bone slice (n=4-4. mean ±SE).
As summarized in Table 3, the various analogs inhibited the resorption of hen osteoclasts with IIIA IC50=10 nM; IIIb, IC50=100 nM; and Ib, IC50=500 nM. Data presented are percent of control bone resorption (n=3-6, mean ±SE). Control levels of resorption varied from 26-49 mg bone resorbed between days 4-6 in culture.

[4] = tested on: rat osteoclasts; test: inhibition of in vitro bone resorption activity of rat osteoclasts (Howship's lacunae per bone slice); assay type: cell-based; conditions: Osteoclast, Table 2b, mean ± SE, read-out: % Control Bone Resorption
Description: as §1

[5] = tested on: post-menopausal loss of bone; conditions: chronic treatment, clinical data; background; cited from earlier work
[6] = tested on: mammalian osteoclasts; conditions: background; cited from earlier work
[7] = 1 mg/kg/day infused via jugular vein
[8] = Table 3, concentration 1 × 10^-6
[9] = Table 3, concentration 1 × 10^-7
[10] = Table 3, concentration 1 × 10^-8
[11] = Table 3, concentration 1 × 10^-9
[12] = Osteoclast, read-out: % Control Bone Resorption

COC[C@H]1OC(=O)c2coc3c2[C@@]1(C)C1=C(C3=O)[C@@H]2CC[C@H](O)[C@@]2(C)C[C@H]1OC(C)=O [IIIa, 17α-Dihydrowortmannin]
Bone Content ([1]; 0.001 mg/kg/day per os): 13.6 ± .6 mg | Total Bone Mineral Density ([1]; 0.001 mg/kg/day per os): 528 ± 33 mg/cm3 | Bone Content ([1]; 0.01 mg/kg/day per os): 13.5 ± 1 mg | Total Bone Mineral Density ([1]; 0.01 mg/kg/day per os): 545 ± 26 mg/cm3 | Bone Content ([1]; 0.1 mg/kg/day per os): 11.5 ± .7 mg | Total Bone Mineral Density ([1]; 0.1 mg/kg/day per os): 494 ± 18 mg/cm3 | serum calcium after 6 hr of infusion [2, 7]: ~5 mg/dL | percent of control bone resorption [3, 8]: 8 ± 1% | percent of control bone resorption [3, 9]: 29 ± 4% | percent of control bone resorption [3, 10]: 67 ± 5% | percent of control bone resorption [3, 11]: 94 ± 5%

COC[C@H]1OC(=O)c2coc3c2[C@@]1(C)C1=C(C3=O)[C@@H]2CC[C@H](O)[C@@]2(C)CC1 [IIIb, 11-Desacetoxy-17α-dihydrowortmannin]
IC50 ([3]; Osteoclast, read-out: IC50, resorption of hen osteoclasts): 100 nM | percent of control bone resorption [3, 8]: 26 ± 3% | percent of control bone resorption [3, 9]: 50 ± 4% | percent of control bone resorption [3, 10]: 88 ± 19% | percent of control bone resorption [3, 11]: 124 ± 23%

Cc1c2c(c(O)c3occ(C(=O)O)c13)[C@@H]1CCC(=O)[C@@]1(C)C=C2 [IVa]
percent of control bone resorption [3, 8]: 105 ± 10% | percent of control bone resorption [3, 9]: 110 ± 13% | percent of control bone resorption [3, 10]: 99 ± 15% | percent of control bone resorption [3, 11]: 93 ± 14%

COC[C@H]1OC(=O)c2coc3c2[C@@]1(C)C1=C(C3=O)[C@@H]2CCC(=O)[C@@]2(C)CC1 [Ib, 11-deacetoxywortmannin]
IC50 ([3]; Osteoclast, hen osteoclasts, analogs, Example 2, read-out: IC50, resorption of hen osteoclasts): 500 nM | percent of control bone resorption [3, 8]: 42 ± 3% | percent of control bone resorption [3, 9]: 90 ± 15% | percent of control bone resorption [3, 10]: 97 ± 17% | percent of control bone resorption [3, 11]: 106 ± 10%

COC[C@H]1OC(=O)c2coc3c2[C@@]1(C)C1=C(C3=O)[C@@H]2CCC(=O)[C@@]2(C)C[C@H]1OC(C)=O [Wortmannin, wortmannin]
activity at 1 µM ([4]; 1 × 10^-6 M): 3 ± 3% | activity at 0.1 µM ([4]; 1 × 10^-7 M): 30 ± 6% | activity at 0.01 µM ([4]; 1 × 10^-8 M): 32 ± 13% | activity at 0.001 µM ([4]; 1 × 10^-9 M): 79 ± 22% | activity at 0.0001 µM ([4]; 1 × 10^-10 M): 93 ± 11% | serum calcium after 6 hr of infusion [2, 7]: approximately 9 mg/dl | activity at 0.01 µM [3, 12]: 90 ± 7% | activity at 0.05 µM [3, 12]: 79 ± 2% | activity at 0.1 µM [3, 12]: 58 ± 6% | activity at 0.5 µM [3, 12]: 52 ± 3% | activity at 1 µM [3, 12]: 54 ± 4% | activity at 5 µM [3, 12]: 19 ± 1% | activity at 10 µM [3, 12]: 23 ± 7% | IC50 ([3]; Osteoclast, read-out: IC50, in vitro bone resorption activity): 300 nM

calcitonin: calcitonin has been used to treat osteoporotic patients (CGNLSTCMLGTYTQDFNKFHTFPQTAIGVGAP; ends and bridges not checked; cysteine pairing not given here; UniProt P01258 85-116, looked up)
arrest of post-menopausal loss of bone [5]: ineffective to arrest the post-menopausal loss of bone

salmon calcitonin [reference compound]
inhibition of resorption activity of mammalian osteoclasts [6]: directly inhibit the resorption activity of mammalian osteoclasts | serum calcium after 6 hr of infusion ([2]; positive control, 12 ug/kg/day): 9 mg/dL
